From patent publication US20250296961A1, “ANTIMICROBIAL PEPTIDES FOR REMINERALIZATION OF TEETH AND PREVENTION OF DENTAL CARIES” (The University of Hong Kong, priority 2021, published 2025)
Read-outs that look alike come from different tables or passages of the source. Residues, ends and D or L forms follow the SMILES beside them. No end group written: not given here. *: point of attachment. 3,4‑dihydroxyphenethylamine = Oc1ccc(CCN*)cc1O

Key:
[1] = for Peptide concentration incubated in human saliva: 37° C.; for Stability: summary grade
Protocol: (§3) The collected saliva samples were centrifuged at 12,000 rpm for 20 min^21]. The supernatant was filtered to remove any debris. […] At 0, 0.5, 1, 2, 4, and 6 h, 40 uL solutions were taken from each sample and were analysed by High Performance Liquid Chromatography (HPLC-UV, 1525 Binary HPLC Pump, 2489 UV/Visible Detector, Waters, USA).

[2] = system: MC3T3-E1 cells
Protocol: (§4) Cells exposed to α-MEM without peptide was the control group. Cells viability after peptide exposure was evaluated by cell survival rate using Cell Counting Kit-8 assay (CCK-8 assay, Sigma-Aldrich, St. Louis, USA).

[3] = in vitro; conditions: human, human saliva (centrifuged, filtered supernatant)
Protocol: as §3

[4] = in vitro; conditions: mouse, MC3T3-E1 cells
Protocol: as §4

[5] = Adsorption capacity assay: peptides with HA particles (Micro BCA); assay type: binding; conditions: for Concentration change (95% CI): initial vs final concentration with HA particles; for Final concentration (Mean ± SD): peptide solution mixed with HA particles (20 mg/tube), overnight 37° C.
Protocol: The adsorption of P-113, P-113-DPS, P-113-DA, and P-113-SK to HA particles (Sigma Chemical Co., St Louis, USA) was measured using the Micro BCA method with Sp-H5 as the control group. Solutions of P-113, P-113-DPS, P-113-DA, P-113-SK and Sp-H5 in 10 mM HEPES buffer (pH 7) were diluted to 10 nmol/mL concentrations, and 200 μL was placed into each tube (P-113, N=10; P-113-DPS, N=10; P-113-DA, N=10; P-113-SK, N=10; and Sp-H5, N=10). Peptide solutions were mixed with (n=5) or without (n=5) HA particles (20 mg/tube) in each group. Tubes were placed onto a rotator overnight at 37° C. for complete reaction. Tubes containing the peptide solution and HA were centrifuged (13000 rpm, 1 min) and the supernatant collected. Bovine serum albumin (BSA) standard solutions (working range=5-250 μg/mL) and working reagent were prepared using the Pierce BCA Protein Assay Kit (Rockford, IL, USA). Working reagents (100 μL/well) were added to a 96-well plate, followed by standard and peptide solutions (100 μL/well). The Plate was incubated in the dark for 30 min and the absorbance (562 nm) measured using a plate reader. The concentration (C) of the BSA standard solution was linear with the absorbance (A) at 562 nm. The function of C=a*A+b was determined (a and b as constants). The final concentration (the peptide solution mixed with HA) and the initial concentration (the peptide solution without HA) were computed using the function and the generated absorbance data of the peptide solution mixed with and without HA.

[6] = system: S. mutans biofilms; assay type: cell-based; conditions: for S. mutans killed (biofilm) / Viability counts of S. mutans biofilms: 24 h exposure
Protocol: (§1) Streptococcus mutans (ATCC 35668, ATCC, Manassas, USA) were cultured in Horse Blood Medium under anaerobic (85% N2, 10% H2, and 5% CO2) conditions at 37° C. Cells were harvested by centrifugation (5000 rpm, 10 min), washed once with 10 mM sodium phosphate-buffered saline (PBS, pH 7.2), and resuspended in brain-heart infusion broth (BHI, Difco Laboratories, Detroit, USA) at a concentration of 10^6 CFU/mL.
S. mutans biofilms were cultured on enamel working surfaces in a 96-well plate. Tooth slices (N=32) were autoclave-sterilized prior to anti-biofilm activity testing. 200 μL S. mutans in BHI (10^6 CFU/mL) was added to each well. After a 24-h incubation at 37° C., each tooth slice was washed once with PBS. […] (in 10 mM HEPES). After incubation, tooth slices were washed once with PBS. One tooth slice at random in each group was stained with the LIVE/DEAD BacLight Bacterial Viability Kit (L7012, Thermo Fisher Scientific, Waltham, USA) and incubated in the dark for 30 min. Fluorescence images were obtained using confocal laser scanning microscopy (CLSM, Fluoview 1000, Olympus, USA). A separate tooth slice was used for the counting of colony-forming units (CFU). Tooth slices were placed in 1 mL BHI solution, and adherent biofilms were removed from the enamel surfaces by sonication for 30 sec. Ten-fold serial dilutions of the suspensions were plated in duplicate on horse blood agar. CFU's were counted after 48-h incubation. Three independent biofilm experiments were performed.

[7] = Demineralization assay of peptide-coated enamel (Example 1); design: species or system human; conditions: for Maximum lesion depth: 8 μmol/mL coating, MicroCT
Protocol: (§2) 3×3×1.5 mm^3 (number: 197) tooth slices were prepared using a water-cooled diamond saw (IsoMet low-speed saw, Buehler, Lake Bluff, IL, USA). One working surface of complete enamel tissue from each tooth slice was generated using the MicroCT Skyscan 1172 (Bruker MicroCT, Kontich, Belgium). The enamel working side of the tooth slice was polished and other sides marked with acid-proof nail polish. All tooth slices were cleaned and stored in deionized water at 4° C.
Tooth slices (N=30) were immersed in 8 μmol/mL P-113, P-113-DPS, P-113-DA, P-113-SK, Sp-H5 (n=5 for each) solutions (in 10 mM HEPES) or HEPES (control) overnight. Tooth slices were incubated in 2 mL demineralization solution (2.2 mM CaCl2), 2.2 mM NaH2PO4, 0.05 M acetic acid, pH 4.5) for 7 days at 37° C. Lesions depths were analyzed by MicroCT Skyscan 1172. Mineral calcium (Ca) or phosphorus (P) concentrations before and after immersion were measured using Inductively Coupled Plasma Optical Emission Spectrometer (ICP-OES; Spectro Arcos, Kleve, Germany). Ca/P loss was expressed as mM/cm^2. The mean values of Ca/P loss were analyzed for each group using ANOVA at the 1% c significance level.

[8] = system: S. mutans; assay: Anti-planktonic bacterial ability, MIC and MBC (Example 1); assay type: cell-based, Streptococcus mutans (ATCC 35668); conditions: for MIC: 24 h
Protocol: as §1
Two-fold serial dilutions (in 10 mM HEPES) of P-113, P-113-DPS, P-113-DA, P-113-SK, and Sp-H5 prepared in 25% BHI medium were pipetted into a 96-well cell culture plate at final concentrations from 0.125-128 μmol/mL [100 μL/well]. Each well was seeded with 10 μL bacterial suspension at a final concentration of 10^6 CFU/mL. Sp-H5 with bacterial cells and 25% BHI medium with and without bacterial cells in 10 mM HEPES buffer (pH 7) were used as the positive, negative, and blank control group, respectively. After a 24-h incubation, absorbance was measured at 595 nm using a microplate reader to assess cell growth. […] The minimal bactericidal concentration (MBC) was defined as the lowest concentration of peptide resulting in no colony formation on agar plates after incubation. 10 μL of cell suspension from each well were plated on horse blood agar plates and incubated at 37° C. for 48 h. All determinations were conducted in triplicate experiments.

[9] = Remineralization assay of peptide-coated enamel (Example 1); design: species or system human; conditions: 8 μmol/mL coating, remineralization solution 24 h, FE-SEM
Protocol: as §2
The enamel working surface of tooth slices (N=30) was acid-etched in 37% phosphoric acid for 1 min and rinsed with deionized water for 1 min. The slices were immersed in 8 μmol/mL P-113, P-113-DPS, P-113-DA, P-113-SK, Sp-H5 (n=5 for each) solutions (in 10 mM HEPES) or HEPES (control) overnight. All tooth slices were incubated in 7 mL remineralization solution (2.58 mM CaCl2)·2H2O, 1.55 mM KH2PO4, 10 mg/L NaF, 180 mM NaCl, 50 mM Tris-HCl, pH 7.6) for 24 h. The enamel surface and cross-section morphology were analyzed by FE-SEM (Hitachi, S4800). Ca/P concentrations in the solutions before and after immersion were calculated by ICP-OES. The mean values for Ca/P gain were analyzed using ANOVA at the 1‰ significance level.

[10] = system: MC3T3-E1 cells; assay: Cytocompatibility test, CCK-8 (Example 2); design: Cytocompatibility: key to the marks not given beside the values
[11] = system: S. mutans; assay: Anti-bacterial adhesion ability on peptide-coated enamel (Example 1); assay type: cell-based, Streptococcus mutans (ATCC 35668); conditions: 32 μmol/mL coated, 5 h incubation
Protocol: as §1
After overnight incubation, they were placed in a 96-well plate, followed by 200 μL S. mutans in BHI (10^6 CFU/mL) and incubation at 37° C. for 5 h. Tooth slices were washed once with PBS, one tooth slice at random from each group was stained, and fluorescence images obtained by CLSM. Separate tooth slices were used for CFU counting. Three independent biofilm experiments were performed.

[12] = demineralization solution 7 days

Compound	Peptide concentration incubated in human saliva ([1]; 0 h) [mg/mL]	Peptide concentration incubated in human saliva ([1]; 0.5 h) [mg/mL]	Peptide concentration incubated in human saliva ([1]; 1 h) [mg/mL]	Peptide concentration incubated in human saliva ([1]; 2 h) [mg/mL]	Peptide concentration incubated in human saliva ([1]; 4 h) [mg/mL]	Peptide concentration incubated in human saliva ([1]; 6 h) [mg/mL]	Stability [1]	remaining at 6 h, 1 mg mL^−1 [3] [%]	Concentration change (95% CI) [5]	Final concentration (Mean ± SD) [5] [nM mL^−1]	Maximum lesion depth [7, 12] [μm]	MBC [8] [μM mL^−1]	MIC [8] [μM mL^−1]	Thickness of the regenerated crystal layer on the enamel surface [9] [μm]	other results
CC(C)C[C@H](NC(=O)[C@H](CCCNC(=N)N)NC(=O)[C@H](Cc1ccccc1)NC(=O)[C@H](Cc1ccccc1)NC(=O)[C@@H](NC(=O)[C@H](COP(=O)(O)O)NC(=O)[C@@H](N)COP(=O)(O)O)[C@@H](C)O)C(=O)N[C@@H](Cc1ccccc1)C(=O)N[C@@H](CC(N)=O)C(=O)N[C@@H](CCCNC(=N)N)C(=O)N[C@@H](C)C(=O)N[C@@H](CCCCN)C(=O)N[C@@H](CCCNC(=N)N)C(=O)N[C@@H](Cc1c[nH]cn1)C(=O)N[C@@H](Cc1c[nH]cn1)C(=O)NCC(=O)N[C@@H](Cc1ccc(O)cc1)C(=O)N[C@@H](CCCCN)C(=O)N[C@@H](CCCNC(=N)N)C(=O)N[C@@H](CCCCN)C(=O)N[C@@H](Cc1ccccc1)C(=O)N[C@@H](Cc1c[nH]cn1)C(=O)O [DPS-C8-P-113] (HELM PEPTIDE1{[N[C@@H](COP(=O)(O)O)C(=O)[*:2]].[O=C([C@H](COP(=O)(O)O)N[*:1])[*:2]].T.F.F.R.L.F.N.R.A.K.R.H.H.G.Y.K.R.K.F.H}$$$$V2.0)	1	0.9818	0.9785	0.9504	0.5388	0.562	++	56.2							Cytocompatibility [2]: +; viability at 24 h, 2 ×MBC [4]: 48%
AKRHHGYKRKFH-D-3,4-dihydroxyphenethylamine (AKRHHGYKRKFHD-{3,4‑dihydroxyphenethylamine}; not fully specified; printed as AKRHHGYKRKFH-D-3,4-dihydroxyphenethylamine) [Peptide P-113-DA]									−0.17 (−0.55-0.40)	10.05 ± 0.99	110	32	16	7	S. mutans killed (biofilm) ([6]; 64 μmol/mL): Approximately 99%; Viability counts of S. mutans biofilms ([6]; 64 μmol/mL): 6.04E+05 CFU/mL; CLSM live/dead state of S. mutans biofilm ([6]; 64 and 128 μmol/mL, 24 h): the majority of S. mutans were dead; Ca losses vs control group [7, 12]: Significant differences were not detected
TFFRLFNRAKRHHGYKRKFH [Peptide C8-P-113]	1	0.9531	0.8602	0.4977	0.3578	0.119	−	11.9							Concentrations with no significant differences in cell survival rates compared to the control group ([10]; MC3T3-E1, 24 h, ½×MBC, MBC and 2×MBC tested): all concentrations; Cytocompatibility ([10]; summary grade): ++
phosphoserine-DSHAKRHHGYKRKFHEKHHSHRGY (SDSHAKRHHGYKRKFHEKHHSHRGY; N-terminal phosphoserine; MOD_RES 1 Serine is phosphorylated) [Sp-H5, phosphoserine-histatin 5, used as control group]									3.27 (2.92-3.58)	6.73 ± 0.12	85	32	8	6	S. mutans killed (biofilm) ([6]; 128 μmol/mL): Approximately 99%; Viability counts of S. mutans biofilms ([6]; 128 μmol/mL): 2.0E+04 CFU/mL; Ca and P loss from coated enamel slices (ICP-OES) ([7]; vs P-113-, P-113-DA-, P-113-SK-coated or non-coated slices, P<0.001): decreased significantly; Viable counts of S. mutans on peptide-coated enamel surfaces [11]: 2.04E+05 CFU/mL
